Assay results: ChEMBL document CHEMBL5579832, “Design, synthesis, and biological evaluation of pyrido[2,3-d]pyrimidin-7(8H)-one derivatives as potent USP1 inhibitors” (Eur J Med Chem, 2024)
Calls of active or inactive are those of the source. The rule behind the calls is not given here.

Legend:
[1] = molecular target: T1, Ubiquitin carboxyl-terminal hydrolase 1/WD repeat-containing protein 48 (Homo sapiens) (UniProt O94782+Q8TAF3); assay: Inhibition of USP1/UAF1 in human Olaparib-resistant MDA-MB-436 cell assessed as increase in Ub-PCNA level at 20 nM incubated for 24 hrs by Western blot analysis; format: cell-based
[2] = test system: Olaparib-resistant MDA-MB-436; assay: Inhibition of colony formation in human Olaparib-resistant MDA-MB-436 cell at 100 nM measured after 7 days in the presence of olaparib by SRB staining based assay relative to control; format: functional; details: Olaparib-resistant MDA-MB-436, 168 h, time 7 day
[3] = test system: Olaparib-resistant MDA-MB-436; assay: Induction of cell cycle arrest in human Olaparib-resistant MDA-MB-436 cell assessed as accumulation of cells in G2/M phase at 1 uM incubated for 24 hrs in the presence of olaparib by PI staining based flow cytometry analysis; format: functional
MDA-MB-436 = assay: Induction of cell cycle arrest in human MDA-MB-436 cells assessed as increase in cells at S phase at 1 uM incubated for 24 hrs by PI staining based flow cytometry analysis; format: functional
[4] = molecular target: T1, Ubiquitin carboxyl-terminal hydrolase 1/WD repeat-containing protein 48 (Homo sapiens); assay: Inhibition of USP1/UAF1 in human NCI-H1299 cells assessed as increase in Ub-PCNA levels at 20 nM incubated for 24 hrs by Western blot analysis; format: cell-based
[5] = molecular target: Ubiquitin carboxyl-terminal hydrolase 9X (Homo sapiens) (UniProt Q93008); assay: Inhibition of USP9X (unknown origin) using diubiquitin as a substrate at 0 to 10 uM preincubated for 15 mins followed by substrate addition and measured after 2 hrs by SDS-PAGE analysis; details: dose 0-10 µM, time 135.0 min
[6] = Cmax in male ICR mouse at 10 mg/kg, po administered as single dose and measured after 24 hrs; format: ADME, organism-based; details: in vivo
[7] = molecular target: T1, Ubiquitin carboxyl-terminal hydrolase 1/WD repeat-containing protein 48 (Homo sapiens); assay: Inhibition of recombinant human 6His-tagged USP1-6His-tagged UAF1 complex using diubiquitin as a substrate assessed as inhibiting the cleavage of K63-linked di-Ub at 0 to 10 uM preincubated for 15 mins followed by substrate addition and measured after 2 hrs by SDS-PAGE analysis; format: protein-complex assay; details: dose 0-10 µM, time 135.0 min
[8] = AUC (0 to t) in male ICR mouse at 10 mg/kg, po administered as single dose and measured after 24 hrs; format: ADME, organism-based; details: in vivo
[9] = molecular target: T1, Ubiquitin carboxyl-terminal hydrolase 1/WD repeat-containing protein 48 (Homo sapiens); assay: Non competitive inhibition of USP1/UAF1 complex (unknown origin) using Ub-7-amido-4-methylcoumarin as substrate at 0 to 200 nM incubated for 120 mins by Lineweaver-burk plot analysis; format: protein-complex assay; details: dose 0-200 nM
[10] = molecular target: T2, Ubiquitin carboxyl-terminal hydrolase 4 (Homo sapiens) (UniProt Q13107); assay: Inhibition of recombinant human 6His-tagged USP4 using diubiquitin as a substrate at 0 to 10 uM preincubated for 15 mins followed by substrate addition and measured after 2 hrs by SDS-PAGE analysis; details: dose 0-10 µM, time 135.0 min
T2 sequence (whole entry): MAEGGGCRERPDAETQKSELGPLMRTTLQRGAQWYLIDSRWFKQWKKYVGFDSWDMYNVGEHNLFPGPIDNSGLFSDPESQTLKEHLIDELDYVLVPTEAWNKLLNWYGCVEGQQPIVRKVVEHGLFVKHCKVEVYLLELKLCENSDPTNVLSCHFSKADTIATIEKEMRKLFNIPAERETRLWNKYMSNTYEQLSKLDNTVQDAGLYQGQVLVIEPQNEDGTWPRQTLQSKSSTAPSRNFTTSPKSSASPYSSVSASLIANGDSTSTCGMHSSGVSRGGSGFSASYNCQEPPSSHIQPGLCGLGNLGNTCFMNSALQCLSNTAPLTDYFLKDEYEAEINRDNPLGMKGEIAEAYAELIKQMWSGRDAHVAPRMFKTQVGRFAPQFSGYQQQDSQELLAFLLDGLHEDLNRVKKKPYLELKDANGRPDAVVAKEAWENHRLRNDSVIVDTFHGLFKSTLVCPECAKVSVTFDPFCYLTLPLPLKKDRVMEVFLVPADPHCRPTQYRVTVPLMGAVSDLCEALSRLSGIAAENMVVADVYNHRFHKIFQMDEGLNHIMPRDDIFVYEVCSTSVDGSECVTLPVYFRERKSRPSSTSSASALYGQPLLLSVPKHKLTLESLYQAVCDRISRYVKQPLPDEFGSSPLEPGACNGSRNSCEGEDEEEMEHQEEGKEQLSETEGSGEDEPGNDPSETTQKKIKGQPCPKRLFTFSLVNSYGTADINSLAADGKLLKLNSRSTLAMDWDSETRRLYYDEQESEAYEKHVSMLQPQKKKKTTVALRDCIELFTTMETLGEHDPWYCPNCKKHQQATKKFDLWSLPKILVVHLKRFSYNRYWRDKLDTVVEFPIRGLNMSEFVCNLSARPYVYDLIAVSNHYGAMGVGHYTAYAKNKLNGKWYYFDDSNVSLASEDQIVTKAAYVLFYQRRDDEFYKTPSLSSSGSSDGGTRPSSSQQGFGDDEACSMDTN

[11] = molecular target: T3, Ubiquitin carboxyl-terminal hydrolase 15 (Homo sapiens) (UniProt Q9Y4E8); assay: Inhibition of recombinant human 6His-tagged USP15 using diubiquitin as a substrate at 0 to 10 uM preincubated for 15 mins followed by substrate addition and measured after 2 hrs by SDS-PAGE analysis; details: dose 0-10 µM, time 135.0 min
T3 sequence (whole entry): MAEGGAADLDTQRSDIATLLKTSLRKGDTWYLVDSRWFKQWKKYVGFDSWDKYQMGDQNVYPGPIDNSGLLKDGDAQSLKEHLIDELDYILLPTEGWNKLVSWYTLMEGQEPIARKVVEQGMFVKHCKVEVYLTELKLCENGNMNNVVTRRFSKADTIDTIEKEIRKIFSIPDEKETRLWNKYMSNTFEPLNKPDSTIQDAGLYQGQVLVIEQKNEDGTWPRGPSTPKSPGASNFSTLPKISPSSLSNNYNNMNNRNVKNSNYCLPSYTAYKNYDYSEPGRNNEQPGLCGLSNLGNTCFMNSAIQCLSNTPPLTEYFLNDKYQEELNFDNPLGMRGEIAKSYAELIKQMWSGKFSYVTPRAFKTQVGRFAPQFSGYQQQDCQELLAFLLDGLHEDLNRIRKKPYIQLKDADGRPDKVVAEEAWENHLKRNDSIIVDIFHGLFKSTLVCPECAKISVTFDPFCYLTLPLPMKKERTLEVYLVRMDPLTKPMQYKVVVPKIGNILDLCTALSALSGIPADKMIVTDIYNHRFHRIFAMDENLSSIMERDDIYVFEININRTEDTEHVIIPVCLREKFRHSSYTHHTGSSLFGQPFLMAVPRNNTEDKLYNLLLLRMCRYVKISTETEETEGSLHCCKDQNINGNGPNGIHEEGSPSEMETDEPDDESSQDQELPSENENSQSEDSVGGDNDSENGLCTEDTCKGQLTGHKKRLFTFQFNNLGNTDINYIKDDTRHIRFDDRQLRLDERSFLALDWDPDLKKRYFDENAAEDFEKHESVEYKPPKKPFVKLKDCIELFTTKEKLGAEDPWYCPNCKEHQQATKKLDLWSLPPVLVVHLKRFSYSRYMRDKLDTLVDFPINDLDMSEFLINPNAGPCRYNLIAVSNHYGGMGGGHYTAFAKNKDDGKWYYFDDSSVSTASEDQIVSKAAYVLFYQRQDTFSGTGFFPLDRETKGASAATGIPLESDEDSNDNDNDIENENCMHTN

Sequence of Ubiquitin carboxyl-terminal hydrolase 9X (Homo sapiens) (Q93008 whole entry): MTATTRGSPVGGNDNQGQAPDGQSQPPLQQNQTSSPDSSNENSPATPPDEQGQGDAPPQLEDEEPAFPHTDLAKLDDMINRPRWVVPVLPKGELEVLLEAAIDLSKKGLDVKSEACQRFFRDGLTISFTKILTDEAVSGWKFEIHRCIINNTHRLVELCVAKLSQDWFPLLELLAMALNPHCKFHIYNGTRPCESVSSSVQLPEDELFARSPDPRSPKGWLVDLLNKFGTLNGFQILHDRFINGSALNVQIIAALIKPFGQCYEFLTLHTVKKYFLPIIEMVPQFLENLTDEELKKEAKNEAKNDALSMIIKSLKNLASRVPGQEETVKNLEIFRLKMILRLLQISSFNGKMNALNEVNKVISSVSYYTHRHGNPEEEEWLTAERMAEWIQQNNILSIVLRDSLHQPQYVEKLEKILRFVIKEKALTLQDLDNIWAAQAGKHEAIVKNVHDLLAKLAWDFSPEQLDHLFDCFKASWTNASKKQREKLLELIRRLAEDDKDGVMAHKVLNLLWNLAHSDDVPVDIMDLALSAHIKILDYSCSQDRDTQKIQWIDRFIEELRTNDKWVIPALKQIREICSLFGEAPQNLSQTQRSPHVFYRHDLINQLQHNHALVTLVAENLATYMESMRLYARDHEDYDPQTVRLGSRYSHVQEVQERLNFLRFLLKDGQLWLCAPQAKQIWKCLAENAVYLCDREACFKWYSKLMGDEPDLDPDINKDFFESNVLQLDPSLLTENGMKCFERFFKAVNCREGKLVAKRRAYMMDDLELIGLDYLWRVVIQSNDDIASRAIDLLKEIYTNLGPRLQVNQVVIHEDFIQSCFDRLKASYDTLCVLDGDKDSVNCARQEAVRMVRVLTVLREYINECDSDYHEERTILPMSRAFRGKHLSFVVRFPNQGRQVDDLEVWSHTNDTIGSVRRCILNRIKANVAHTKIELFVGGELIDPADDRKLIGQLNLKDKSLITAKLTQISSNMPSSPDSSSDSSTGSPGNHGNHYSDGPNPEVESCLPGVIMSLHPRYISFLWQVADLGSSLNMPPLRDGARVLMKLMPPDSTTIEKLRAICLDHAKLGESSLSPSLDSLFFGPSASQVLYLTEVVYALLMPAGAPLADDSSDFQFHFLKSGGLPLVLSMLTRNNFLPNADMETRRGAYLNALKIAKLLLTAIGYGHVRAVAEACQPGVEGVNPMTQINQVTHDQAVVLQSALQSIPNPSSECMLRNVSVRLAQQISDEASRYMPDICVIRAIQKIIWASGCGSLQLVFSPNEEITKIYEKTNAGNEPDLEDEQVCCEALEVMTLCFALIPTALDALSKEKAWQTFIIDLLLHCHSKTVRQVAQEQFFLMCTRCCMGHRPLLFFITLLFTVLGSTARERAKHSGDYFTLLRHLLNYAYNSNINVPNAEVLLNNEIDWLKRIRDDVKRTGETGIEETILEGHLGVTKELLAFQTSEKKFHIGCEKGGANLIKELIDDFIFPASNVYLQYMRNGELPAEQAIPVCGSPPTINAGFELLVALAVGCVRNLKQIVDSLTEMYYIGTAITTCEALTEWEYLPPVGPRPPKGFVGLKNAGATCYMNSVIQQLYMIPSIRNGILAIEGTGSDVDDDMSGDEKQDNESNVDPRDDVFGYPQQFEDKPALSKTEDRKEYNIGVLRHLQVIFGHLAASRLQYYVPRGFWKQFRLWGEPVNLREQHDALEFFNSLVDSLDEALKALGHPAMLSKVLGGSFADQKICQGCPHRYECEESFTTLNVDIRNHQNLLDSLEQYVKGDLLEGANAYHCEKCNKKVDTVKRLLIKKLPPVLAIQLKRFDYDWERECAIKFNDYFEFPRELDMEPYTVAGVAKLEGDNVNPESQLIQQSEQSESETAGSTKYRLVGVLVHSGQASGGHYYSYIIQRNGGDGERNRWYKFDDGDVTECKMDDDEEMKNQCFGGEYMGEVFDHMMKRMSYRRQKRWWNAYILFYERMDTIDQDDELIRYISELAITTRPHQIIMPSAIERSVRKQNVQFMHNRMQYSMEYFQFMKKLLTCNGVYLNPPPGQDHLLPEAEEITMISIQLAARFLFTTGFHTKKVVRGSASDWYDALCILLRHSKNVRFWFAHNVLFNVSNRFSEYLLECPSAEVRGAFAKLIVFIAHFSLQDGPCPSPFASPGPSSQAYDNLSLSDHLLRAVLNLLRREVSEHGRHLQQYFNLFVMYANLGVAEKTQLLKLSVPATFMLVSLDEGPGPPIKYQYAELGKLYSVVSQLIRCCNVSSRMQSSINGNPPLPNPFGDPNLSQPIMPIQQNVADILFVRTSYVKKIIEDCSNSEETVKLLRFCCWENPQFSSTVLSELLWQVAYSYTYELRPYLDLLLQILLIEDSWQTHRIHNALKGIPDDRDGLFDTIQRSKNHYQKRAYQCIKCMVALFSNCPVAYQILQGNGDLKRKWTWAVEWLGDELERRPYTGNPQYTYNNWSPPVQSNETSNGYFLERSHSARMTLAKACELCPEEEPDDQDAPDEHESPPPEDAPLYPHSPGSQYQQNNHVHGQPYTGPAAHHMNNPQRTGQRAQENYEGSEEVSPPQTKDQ

Question: Which results are given for `COc1ncnc(C2CC2)c1-c1ncc2ccc(=O)n(Cc3ccc(-c4nc(C(F)(F)F)cn4C(C)C)cc3)c2n1`?
Answer: inhibition [1]: Active; inhibition at 0.1 µM [2]: 50%; Activity [3]: Active; Activity (MDA-MB-436): Active; Activity [4]: Active; inhibition [5]: inactive; Cmax [6]: 4780 ng/mL; inhibition [7]: Active; AUC(0-t) at 24 h [8]: 35800 ng·h/mL; inhibition [9]: Active; inhibition [10]: inactive; inhibition [11]: inactive
